Results: US5888998A, “2-oxo-1-azetidine sulfonic acid derivatives as potent β-lactamase inhibitors” (Synphar Laboratories, Inc., priority 1997, dated 1999)
Structures can show the parent of a compound that is named as a salt.

How the values were obtained:
[1] = biological target: T1, cephalosporinase (Pseudomonas aeruginosa, UniProt P24735); experiment: β-lactamase inhibitory activity, spectrophotometric rate assay with nitrocefin as substrate; type: biochemical, P. aeruginosa 46012
T1 construct: nitrocefin as substrate; purification not described
Excerpt: As already said, the oxyimino fragment i.e., =N--OR2 in the formula (I) in its `anti` orientation provides excellent synergy with a β-lactam antibiotic against class C β-lactamase (cephalosporinase) producing microorganisms, P. aeruginosa, in particular. Thus this invention includes only those compounds having the formula (I) in which the oxyimino group (=N--OR2) is specifically in the `anti` orientation as shown in (I). Furthermore, the inhibitory activity against the isolated β-lactamase (e.g., cephalosporinase from P. aeruginosa 46012) and the synergy with a β-lactam antibiotic is greatly influenced by the nature of the heterocyclic ring represented by R1 and the nature of the substituent in the oxime fragment represented by R2.
The inhibitory activities of present compounds (β-lactamase inhibitors) against cephalosporinase was measured by spectrophotometric rate assay using […] and using nitrocefin as a substrate (J. Antimicrob. Chemother., vol. 28, pp 775-776, 1991).

[2] = tested on: β-lactamase; settings: cited from earlier work
[3] = tested on: E. cloacae MNH-2; experiment: MIC of ceftazidime, microbroth dilution; type: cell-based; settings: Enterobacter cloacae, MNH2, 18 h, read-out: MIC of ceftazidime alone
Experimental: (§1) After incubation in Mueller-Hinton Broth (Difco) at 37° C. for 18 h, the bacterial suspension was diluted and about 10^5 CFU/ml was applied to the drug-containing Mueller-Hinton Broth in each well of 96 well plate. The MICs were recorded after 18 h of incubation at 37° C. on the lowest combinations of drug that inhibited visible growth of bacteria.

[4] = tested on: E. cloacae 40054; experiment: MIC of ceftazidime, microbroth dilution; type: cell-based; settings: Enterobacter cloacae, 40054, 18 h, read-out: MIC of ceftazidime alone
Experimental: as §1

[5] = tested on: P. aeruginosa 46012 (R); experiment: MIC of ceftazidime, microbroth dilution; type: cell-based; settings: Pseudomonas aeruginosa, 18 h, read-out: MIC of ceftazidime alone
Experimental: as §1, with “[…]. After” for “After”

[6] = tested on: P. fluorescens sp 5953; experiment: MIC of ceftazidime, microbroth dilution; type: cell-based; settings: Pseudomonas fluorescens, SP5953, 18 h, read-out: MIC of ceftazidime alone
Experimental: as §1, with “[…]. After” for “After”

[7] = tested on: P. aeruginosa AU-8; experiment: MIC of ceftazidime, microbroth dilution; type: cell-based; settings: Pseudomonas aeruginosa, AU8, 18 h, read-out: MIC of ceftazidime alone
Experimental: as §1, with “[…]. After” for “After”

[8] = tested on: P. aeruginosa AU-5; experiment: MIC of ceftazidime, microbroth dilution; type: cell-based; settings: Pseudomonas aeruginosa, AU5, 18 h, read-out: MIC of ceftazidime alone
Experimental: as §1, with “[…]. After” for “After”

[9] = tested on: P. aeruginosa CT-144; experiment: MIC of ceftazidime, microbroth dilution; type: cell-based; settings: Pseudomonas aeruginosa, CT144, 18 h, read-out: MIC of ceftazidime alone
Experimental: as §1, with “[…]. After” for “After”

[10] = tested on: E. aerogenes S-95; experiment: MIC of ceftazidime, microbroth dilution; type: cell-based; settings: Klebsiella aerogenes, S95, 18 h, read-out: MIC of ceftazidime alone
Experimental: as §1, with “[…]. After” for “After”

[11] = tested on: M. morganii 36014; experiment: MIC of ceftazidime, microbroth dilution; type: cell-based; settings: Morganella morganii, 36014, 18 h, read-out: MIC of ceftazidime alone
Experimental: as §1, with “[…]. After” for “After”

[12] = tested on: P. aeruginosa M 1405; experiment: MIC of ceftazidime, microbroth dilution; type: cell-based; settings: Pseudomonas aeruginosa, M1405, 18 h, read-out: MIC of ceftazidime alone
Experimental: as §1, with “[…]. After” for “After”

[13] = tested on: P. aeruginosa M 2297; experiment: MIC of ceftazidime, microbroth dilution; type: cell-based; settings: Pseudomonas aeruginosa, M2297, 18 h, read-out: MIC of ceftazidime alone
Experimental: as §1, with “[…]. After” for “After”

[14] = tested on: P. aeruginosa sp 2439 Wt.; experiment: MIC of ceftazidime, microbroth dilution; type: cell-based; settings: Pseudomonas aeruginosa, SP2439WT., 18 h, read-out: MIC of ceftazidime alone
Experimental: as §1, with “[…]. After” for “After”

[15] = tested on: P. aeruginosa CT-137; experiment: MIC of ceftazidime, microbroth dilution; type: cell-based; settings: Pseudomonas aeruginosa, CT137, 18 h, read-out: MIC of ceftazidime alone
Experimental: as §1, with “[…]. After” for “After”

[16] = tested on: P. aeruginosa PAO 303 carb-4; experiment: MIC of ceftazidime, microbroth dilution; type: cell-based; settings: Pseudomonas aeruginosa, PAO303CARB4, 18 h, read-out: MIC of ceftazidime alone
Experimental: as §1, with “[…]. After” for “After”

[17] = tested on: P. aeruginosa L46004; experiment: MIC of ceftazidime, microbroth dilution; type: cell-based; settings: Pseudomonas aeruginosa, L46004, 18 h, read-out: MIC of ceftazidime alone
Experimental: as §1, with “[…]. After” for “After”

[18] = tested on: P. aeruginosa 46017; experiment: MIC of ceftazidime, microbroth dilution; type: cell-based; settings: Pseudomonas aeruginosa, 46017, 18 h, read-out: MIC of ceftazidime alone
Experimental: as §1, with “[…]. After” for “After”

[19] = tested on: P. aeruginosa 46220 DR-2-1; experiment: MIC of ceftazidime, microbroth dilution; type: cell-based; settings: Pseudomonas aeruginosa, 46220DR21, 18 h, read-out: MIC of ceftazidime alone
Experimental: as §1, with “[…]. After” for “After”

[20] = tested on: E. aerogenes 41006; experiment: MIC of ceftazidime, microbroth dilution; type: cell-based; settings: Klebsiella aerogenes, 41006, 18 h, read-out: MIC of ceftazidime alone
Experimental: as §1, with “[…]. After” for “After”

[21] = tested on: P. aeruginosa AU-10; experiment: MIC of ceftazidime, microbroth dilution; type: cell-based; settings: Pseudomonas aeruginosa, AU10, 18 h, read-out: MIC of ceftazidime alone
Experimental: as §1, with “[…]. After” for “After”

[22] = tested on: M. morganii 36030; experiment: MIC of ceftazidime, microbroth dilution; type: cell-based; settings: Morganella morganii, 36030, 18 h, read-out: MIC of ceftazidime alone
Experimental: as §1, with “[…]. After” for “After”

[23] = tested on: P. aeruginosa AU-7; experiment: MIC of ceftazidime, microbroth dilution; type: cell-based; settings: Pseudomonas aeruginosa, AU7, 18 h, read-out: MIC of ceftazidime alone
Experimental: as §1, with “[…]. After” for “After”

[24] = tested on: P. aeruginosa CT-122; experiment: MIC of ceftazidime, microbroth dilution; type: cell-based; settings: Pseudomonas aeruginosa, CT122, 18 h, read-out: MIC of ceftazidime alone
Experimental: as §1, with “[…]. After” for “After”

[25] = tested on: P. aeruginosa AU-1; experiment: MIC of ceftazidime, microbroth dilution; type: cell-based; settings: Pseudomonas aeruginosa, AU1, 18 h, read-out: MIC of ceftazidime alone
Experimental: as §1, with “[…]. After” for “After”

[26] = tested on: E. cloacae P99; experiment: microbe, parasite or virus in culture; type: cell-based; settings: Enterobacter cloacae, P99, 18 h, read-out: MIC of ceftazidime alone
Experimental: as §1

[27] = tested on: P. aeruginosa 46220 DR-2; experiment: MIC of ceftazidime, microbroth dilution; type: cell-based; settings: Pseudomonas aeruginosa, 46220DR2, alone, 18 h, 37° C.
Experimental: as §1, with “The MICs of the antibiotics (ceftazidime) alone, the MICs of ceftazidime in combination with reference compounds particularly aztreonam (ref. compd. I) and the MICs of the β-lactamase inhibitors (10 μg/ml) of the present invention in combination with ceftazidime were determined with the same β-lactamase producing bacteria. After” for “After”

T1 sequence (P24735 27-397): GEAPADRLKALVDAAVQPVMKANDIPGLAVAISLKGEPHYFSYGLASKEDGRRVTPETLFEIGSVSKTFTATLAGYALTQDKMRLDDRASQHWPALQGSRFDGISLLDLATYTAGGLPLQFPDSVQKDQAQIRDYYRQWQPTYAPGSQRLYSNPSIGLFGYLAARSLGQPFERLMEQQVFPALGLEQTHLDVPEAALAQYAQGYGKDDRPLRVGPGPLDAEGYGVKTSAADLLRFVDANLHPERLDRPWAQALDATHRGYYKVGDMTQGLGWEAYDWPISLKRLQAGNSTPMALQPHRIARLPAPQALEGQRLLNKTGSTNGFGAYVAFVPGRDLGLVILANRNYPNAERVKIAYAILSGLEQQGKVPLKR

SMILES: C[C@H]1[C@H](NC(=O)/C(=N/OCc2cc(=O)c(O)cn2O)c2cccs2)C(=O)N1S(=O)(=O)O [Compound 1, (3S)-trans-3-[(E)-2-(2-thienyl)-2-{(1,5-dihydroxy-4-pyridon-2-ylmethoxy)imino}acetamido]-4-methyl-2-oxoazetidine-1-sulfonic acid]
- IC50 [1]: 60 nM

SMILES: C[C@H]1[C@H](NC(=O)/C(=N/OCc2cc(=O)c(O)cn2O)c2cccs2)C(=O)N1S(=O)(=O)O [Compound 2]
- IC50 [1]: 40 nM

SMILES: C[C@H]1[C@H](NC(=O)/C(=N/OCc2cc(=O)c(O)cn2O)c2cccs2)C(=O)N1S(=O)(=O)O [Compound 3]
- IC50 [1]: 10 nM

SMILES: CC(O/N=C(/C(=O)N[C@@H]1C(=O)N(S(=O)(=O)O)[C@H]1C)c1cccs1)c1cc(=O)c(O)cn1O (some centres unmarked) [Compound 4]
- IC50 [1]: 60 nM

SMILES: C=CCC(O/N=C(/C(=O)N[C@@H]1C(=O)N(S(=O)(=O)O)[C@H]1C)c1cccs1)c1cc(=O)c(O)cn1O (some centres unmarked) [Compound 5]
- IC50 [1]: 50 nM

SMILES: C[C@H]1[C@H](NC(=O)/C(=N/OC(c2ccc(F)cc2)c2cc(=O)c(O)cn2O)c2cccs2)C(=O)N1S(=O)(=O)O (some centres unmarked) [Compound 6]
- IC50 [1]: 100 nM

SMILES: C[C@H]1[C@H](NC(=O)/C(=N/OCCSCc2cc(=O)c(O)cn2O)c2cccs2)C(=O)N1S(=O)(=O)O [Compound 7]
- IC50 [1]: 60 nM

SMILES: C[C@H]1[C@H](NC(=O)/C(=N/OCCNC(=O)/C(=N\OCc2cc(=O)c(O)cn2O)c2cccs2)c2cccs2)C(=O)N1S(=O)(=O)O [Compound 9]
- IC50 [1]: 6 nM

SMILES: C[C@H]1[C@H](NC(=O)/C(=N/OCCNC(=O)/C(=N/OCc2cc(=O)c(O)cn2O)c2cccs2)c2cccs2)C(=O)N1S(=O)(=O)O [Compound 10]
- IC50 [1]: 1 nM

SMILES: C/C(=N/OCc1cc(=O)c(O)cn1O)C(=O)NCCO/N=C(/C(=O)N[C@@H]1C(=O)N(S(=O)(=O)O)[C@H]1C)c1cccs1 [Compound 11]
- IC50 [1]: 50 nM

SMILES: C[C@H]1[C@H](NC(=O)/C(=N/OCCNC(=O)/C(=N\OCc2cc(=O)c(O)cn2O)c2csc(N)n2)c2cccs2)C(=O)N1S(=O)(=O)O [Compound 12]
- IC50 [1]: 6 nM

SMILES: C[C@H]1[C@H](NC(=O)/C(=N/OCCNC(=O)c2cc(=O)c(O)c[nH]2)c2cccs2)C(=O)N1S(=O)(=O)O [Compound 13]
- IC50 [1]: 10 nM

SMILES: C[C@H]1[C@H](NC(=O)/C(=N/OCc2cc(=O)c(O)c[nH]2)c2cccs2)C(=O)N1S(=O)(=O)O [Compound 14, (3S)-trans-3-[(E)-2-(2-thienyl)-2{(5-hydroxy-4-pyridon-2-ylmethoxy)imino}acetamido]-4-methyl-2-oxoazetidine-1-sulfonic acid, potassium salt]
- IC50 [1]: 40 nM

SMILES: C[C@H]1[C@H](NC(=O)/C(=N/OCc2cc(=O)c(O)cn2O)c2cccn2C)C(=O)N1S(=O)(=O)O [Compound 15]
- IC50 [1]: 900 nM

SMILES: C[C@H]1[C@H](NC(=O)/C(=N/OCC(N)COC(=O)/C(=N\OCc2cc(=O)c(O)cn2O)c2cccs2)c2cccs2)C(=O)N1S(=O)(=O)O (some centres unmarked) [Compound 16]
- IC50 [1]: 4.5 nM

SMILES: C[C@H]1[C@H](NC(=O)/C(=N\OC(C)(C)C(=O)O)c2csc(N)n2)C(=O)N1S(=O)(=O)O [Ref. compd. I, Aztreonam]
- β-lactamase inhibitory properties [2]: possesses β-lactamase inhibitory properties
- IC50 [1]: 130 nM

SMILES: C[C@H]1[C@H](NC(=O)/C(=N\OCc2cc(=O)c(O)cn2O)c2cccs2)C(=O)N1S(=O)(=O)O [Ref. compd. III]
- IC50 [1]: 40 nM

SMILES: C[C@H]1[C@H](NC(=O)/C(=N/OC(C)(C)C(=O)O)c2csc(N)n2)C(=O)N1S(=O)(=O)O [Ref. compd. II]
- IC50 [1]: 2000 nM

SMILES: CC(C)(O/N=C(\C(=O)N[C@@H]1C(=O)N2C(C(=O)[O-])=C(C[n+]3ccccc3)CS[C@H]12)c1csc(N)n1)C(=O)O [ceftazidime]
- MIC [3]: > 32 µg/mL
- MIC [4]: > 32 µg/mL
- MIC [5]: > 32 µg/mL
- MIC [6]: > 32 µg/mL
- MIC [7]: > 32 µg/mL
- MIC [8]: > 32 µg/mL
- MIC [9]: > 32 µg/mL
- MIC [10]: > 32 µg/mL
- MIC [11]: 32 µg/mL
- MIC [12]: > 32 µg/mL
- MIC [13]: > 32 µg/mL
- MIC [14]: > 32 µg/mL
- MIC [15]: 16 µg/mL
- MIC [16]: 32 µg/mL
- MIC [17]: > 32 µg/mL
- MIC [18]: > 32 µg/mL
- MIC [19]: > 32 µg/mL
- MIC [20]: > 32 µg/mL
- MIC [21]: 32 µg/mL
- MIC [22]: > 32 µg/mL
- MIC [23]: > 32 µg/mL
- MIC [24]: 32 µg/mL
- MIC [25]: > 32 µg/mL
- MIC [26]: > 32 µg/mL
- MIC [27]: 32 µg/mL
